Test results published in PMC3782002 (Journal of Chemical Information and Modeling, 2013).

What was measured:
Format in all cases: biochemical, B. subtilis
GR-N75A [1] = biological target: T1, GR-N75A (Bacillus subtilis, UniProt P94556, N75A); experiment: Coupled-enzyme IC50 assay; conditions: N75A mutation
T1 sequence (P94556 1-272 N75A): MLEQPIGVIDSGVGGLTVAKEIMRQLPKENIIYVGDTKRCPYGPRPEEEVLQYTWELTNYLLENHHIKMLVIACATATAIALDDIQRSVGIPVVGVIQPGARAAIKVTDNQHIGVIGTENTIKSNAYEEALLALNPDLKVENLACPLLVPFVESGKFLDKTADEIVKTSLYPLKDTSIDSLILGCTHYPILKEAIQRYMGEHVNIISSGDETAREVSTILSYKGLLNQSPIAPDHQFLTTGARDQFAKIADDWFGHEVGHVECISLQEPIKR

GR-N75L [2] = biological target: T2, GR-N75L (Bacillus subtilis, UniProt P94556, N75L); experiment: Coupled-enzyme IC50 assay; conditions: N75L mutation
T2 sequence (P94556 1-272 N75L): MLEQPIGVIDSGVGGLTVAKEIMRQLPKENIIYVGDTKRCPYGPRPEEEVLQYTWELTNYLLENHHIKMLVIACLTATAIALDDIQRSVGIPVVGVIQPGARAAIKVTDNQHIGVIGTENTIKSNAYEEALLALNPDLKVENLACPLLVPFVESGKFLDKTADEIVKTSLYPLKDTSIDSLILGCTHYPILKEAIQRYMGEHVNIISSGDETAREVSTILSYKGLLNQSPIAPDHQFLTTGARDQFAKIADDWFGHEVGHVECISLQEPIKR

GR-N75A [3] = biological target: T1, GR-N75A; experiment: Steady-state kinetics of D- to L- racemization by circular dichroism at 220 nm
GR-N75L [4] = biological target: T2, GR-N75L; experiment: as above
[5] = substrate: N[C@H](CCC(=O)O)C(=O)O; experiment: as above; conditions: other: GR-WT, 25 °C, pH 8.0

## O=S(=O)(O)c1nc2ccccc2[nH]1 [Compound 1, 1H-benzimidazole-2-sulfonic acid]
GR-N75A [1]
  increase in IC50 compared to the IC50 for wild-type GR: 600%
GR-N75L [2]
  increase in IC50 compared to the IC50 for wild-type GR: 50%

## N[C@H](CCC(=O)O)C(=O)O [Compound 3, D-glutamate]
GR-N75A [3]
  kcat: 45.6 ± 1.9 s⁻¹
GR-N75A [3]; 25 °C
  Km: 730 ± 90 µM
GR-N75L [4]
  kcat: 0.15 ± 0.01 s⁻¹
GR-N75L [4]; 25 °C
  Km: 490 ± 100 µM

B1: GR-WT (Bacillus subtilis subsp. subtilis str. 168) (protein)
chain: MLEQPIGVIDSGVGGLTVAKEIMRQLPKENIIYVGDTKRCPYGPRPEEEVLQYTWELTNYLLENHHIKMLVIACNTATAIALDDIQRSVGIPVVGVIQPGARAAIKVTDNQHIGVIGTENTIKSNAYEEALLALNPDLKVENLACPLLVPFVESGKFLDKTADEIVKTSLYPLKDTSIDSLILGCTHYPILKEAIQRYMGEHVNIISSGDETAREVSTILSYKGLLNQSPIAPDHQFLTTGARDQFAKIADDWFGHEVGHVECISLQEPIKR
[5]
  kcat: 1.64 ± 0.03 s⁻¹
  kcat/Km: 12600 ± 80 M⁻¹ s⁻¹
